In patent US8546147B2, “Imidazo[1,2-α]pyrazin-3(7H)-one derivatives bearing a new electron-rich structure” (Universita degli Studi di Siena, priority 2009, dated 2013):
Where two headings read alike, the source gives them in different places.

Key:
[1] = Chemiluminescence spectrum in DMSO (Shimadzu RF5001PC); assay type: physicochemical; conditions: for max. emission peak of chemiluminescent spectrum: 1-3 μg/mL in DMSO
Description: Chemiluminescence Spectrums.
Consequently, 10 μL of the stock solution were directly diluted in the quartz cuvette reader of the Fluorescence Spectrophotometer Shimadzu RF5001PC, containing 3 mL of DMSO, to obtain a final sample concentration of 1-3 μg/mL.

[2] = cited from earlier work
[3] = target: T1, Renilla Luciferase (RLuC) (Renilla reniformis, UniProt P27652)
T1 sequence (P27652 1-311): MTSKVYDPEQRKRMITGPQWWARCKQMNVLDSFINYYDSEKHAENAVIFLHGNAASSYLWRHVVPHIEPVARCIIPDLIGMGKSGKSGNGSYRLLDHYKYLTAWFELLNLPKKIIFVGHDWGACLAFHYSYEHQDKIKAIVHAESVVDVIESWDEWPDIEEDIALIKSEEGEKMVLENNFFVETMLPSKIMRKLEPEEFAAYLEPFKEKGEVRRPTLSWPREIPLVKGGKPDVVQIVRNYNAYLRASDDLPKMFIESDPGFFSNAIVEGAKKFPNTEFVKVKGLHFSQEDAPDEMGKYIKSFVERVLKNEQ
Description: Bioluminescence Spectrum.
Bioluminescence was measured according to standard procedures.^40

[4] = target: T2, RLuC (donor) and Green Fluorescent Protein GFP (acceptor) (Renilla reniformis, UniProt P27652); conditions: three different times, FIG. 8-10
T2 sequence (P27652 1-311): T1 sequence (P27652 1-311)

[5] = cited from earlier work; remark: listed apart in the source
RLuc = target: T3, RLuc (Renilla reniformis, UniProt P27652); conditions: cited from earlier work
T3 sequence (P27652 1-311): T1 sequence (P27652 1-311)

[6] = first line of values, native = 1.00
[7] = second line of values (line with half-rise time in ms)

Row | Molecule | Half-rise Time ([2]; first line of values) | Relative Intensity [2, 6] | Relative Luminescence capacity [2, 6] | Relative Intensity [2, 7] | Relative Luminescence capacity [2, 7] | Half-rise Time ([2]; second line of values) | other results
1 | O=c1c(Cc2ccccc2)nc2c(Cc3ccccc3)[nH]c(-c3ccccc3)cn1-2 [Compound 23b, 2,8-Dibenzyl-6-phenylimidazo-[1,2-a]pyrazin-3(7H)-one] |  |  |  |  |  |  | max. emission peak of chemiluminescent spectrum [1]: 465 nm
2 | Oc1ccc(Cc2nc3c(Cc4ccccc4)nc4c(n3c2O)CCc2cc(O)ccc2-4)cc1 [Coelenterazine e] | 0.15 to 0.3 s | 4 | 0.5 |  |  |  | 
3 | O=c1c(Cc2ccccc2)nc2c(Sc3ccc(Cl)cc3)[nH]c(-c3ccc(O)cc3)cn1-2 [Compound 23i, 2-Benzyl-8-(4-chlorophenylthio)-6-(4-hydroxyphenyl)imidazo[1,2-a]pyrazin-3(7H)-one] |  |  |  |  |  |  | Biolum. Imax [3]: 510 nm; Chemil. Imax [1]: 505 nm
4 | O=c1c(Cc2ccc(O)cc2)nc2c(CC3CCCC3)[nH]c(-c3ccc(O)cc3)cn1-2 [Coelenterazine cp] | 0.15 to 0.3 s | 20 | 0.95 | 28 | 0.63 | 0.005 s | 
5 | O=c1c(Cc2ccccc2)nc2c(Sc3ccc(Cl)cc3)[nH]c(-c3ccccc3)cn1-2 [Compound 23n, 2-Benzyl-8-(4-chlorophenylthio)-6-phenylimidazo[1,2-a]pyrazin-3(7H)-one] |  |  |  |  |  |  | Chemil. Imax [1]: 505 nm
6 | Oc1ccc(-c2cn3c(O)c(Cc4ccccc4)nc3c(Cc3ccccc3)n2)cc1 [Coelenterazine h] | 0.4 to 0.80 s | 10 | 0.82 | 16 | 0.75 | 0.006 to 0.03 s | 
7 | Coelenterazine ip | 1 s | 47 | 0.54 |  |  |  | 
8 | Coelenterazine n | 5 s | 0.01 | 0.26 | 0.15 | 0.25 | 0.006 to 0.03 s | 
9 | O=c1c(Cc2ccccc2)nc2c(Sc3ccccc3)[nH]c(-c3ccccc3)cn1-2 [Compound 23f, 2-Benzyl-6-phenyl-8-(phenylthio)imidazo-[1,2-a]pirazin-3(7H)-one] |  |  |  |  |  |  | emission over time in BRET experiment (in words) [4]: long lasting; bioluminescent emission [3]: about 415 nm; shift in respect of compound 23b [3]: about 30 nm; Shifts vs.23b ([3]; 1st measurement): 27.7 nm; Bioluminescent emission max ([3]; 1st measurement of triplicate): 415.1 nm; Shifts vs.23b ([3]; 2nd measurement): 27.4 nm; Bioluminescent emission max ([3]; 2nd measurement of triplicate): 419.4 nm; Shifts vs.23b ([3]; 3d measurement): 31.4 nm; Bioluminescent emission max ([3]; 3d measurement of triplicate): 424.3 nm; kinetic of chemiluminescence (in words) [1]: slower than 23b; max. emission peak of chemiluminescent spectrum [1]: 510 nm; emission shift between chemiluminescent spectrums ([1]; 23f versus 23b): about 45 nm; chemiluminescence intensity (in words) ([1]; compared with 23b): relative lowest intensity
10 | O=c1c(Cc2ccc(F)cc2)nc2c(CC3CCCC3)[nH]c(-c3ccc(O)cc3)cn1-2 [Coelenterazine fcp] | 0.4 to 0.8 s | 135 | 0.57 |  |  |  | 
11 | O=c1c(Cc2ccc(I)cc2)nc2c(Cc3ccccc3)[nH]c(-c3ccc(O)cc3)cn1-2 [Coelenterazine i] | 8 s | 0.03 | 0.70 |  |  |  | 
12 | O=c1c(Cc2ccc(O)cc2)nc2c(Cc3ccccc3)[nH]c(-c3ccc(O)cc3)cn1-2 [Compound 1, coelenterazine] | 0.4 to 0.8 s | 1.00 | 1.00 |  |  | 0.006 to 0.03 s | ΦCl ([5]; chemiluminescence quantum yield): 0.21%; Relative Light Yield ([5]; in brackets, relative to compound 1 (1.0)): 1.0
13 | O=c1c(Cc2ccc(F)cc2)nc2c(Cc3ccccc3)[nH]c(-c3ccc(O)cc3)cn1-2 [Coelenterazine f] | 0.4 to 0.8 s | 18 | 0.80 | 20 | 0.80 | 0.006 to 0.03 s | 
14 | O=c1c(Cc2ccccc2)nc2c(Cc3ccccc3)[nH]c(-c3ccc4c(c3)OCO4)cn1-2 [Compound 23e, 2,8-Dibenzyl-6-[3,4-(methylendioxy)-phenyl]imidazo-[1,2-a]pirazin-3(7H)-one] |  |  |  |  |  |  | emission over time in BRET experiment (in words) [4]: decrease over time; Shifts vs.23b ([3]; 1st measurement): 10.2 nm; Bioluminescent emission max ([3]; 1st measurement of triplicate): 397.6 nm; Shifts vs.23b ([3]; 2nd measurement): 5.5 nm; Bioluminescent emission max ([3]; 2nd measurement of triplicate): 397.5 nm; Shifts vs.23b ([3]; 3d measurement): 5.2 nm; Bioluminescent emission max ([3]; 3d measurement of triplicate): 398.2 nm
15 | O=c1c(Cc2ccccc2)nc2c(Cc3ccccc3)[nH]c(-c3ccccc3)cn1-2 [Coelenterazine 400a] |  |  |  |  |  |  | Rluc emission peak (RLuc): 395 nm
16 | Coelenterazine hcp | 0.15 to 0.3 s | 190 | 0.67 | 500 | 0.65 | 0.002 to 0.005 s | 
